CC50 data for 12 molecules are collected here from US9890133B2 (priority 2011, dated 2018).

The series can be described thus: in vitro. To be noted: human.

SMILES strings stand for the structures. Converted amounts (≈) assume the structure as drawn.

Take `CC(C)c1ccc2c(c1)OC1(O)c3cccc(N)c3C(=O)C21NS(=O)(=O)C(F)(F)F` (centres unmarked) [Example 176, N-(1-Amino-4b-hydroxy-7-isopropyl-10-oxo-9b,10-dihydro-4bH-benzo[d]indeno[1,2-b]furan-9b-yl)-1,1,1-trifluoromethanesulfonamide]: the CC50 is > 10 µg/mL.

Regarding `CC(C)c1ccc2c(c1)OC1(O)c3ccccc3C(=O)C21NC=O` (centres unmarked) [Example 177, N-(4b-hydroxy-7-isopropyl-10-oxo-9b,10-dihydro-4bH-indeno[1,2-b]benzofuran-9b-yl)formamide], the CC50 was > 10 µg/mL. In the case of `O=C1c2ccccc2C2(O)Oc3ccccc3C12NS(=O)(=O)C(F)(F)F` (centres unmarked) [Example 178, 1,1,1-Trifluoro-N-(4b-hydroxy-10-oxo-9b,10-dihydro-4bH-benzo[d]indeno[1,2-b]furan-9b-yl)methanesulfonamide], the CC50 was > 10 µg/mL. In turn, `CC(C)c1ccc2c(c1)OC1(O)c3cccc(N)c3C(=O)C21NC(=O)Cc1ccc(-c2ccccc2)cc1` (centres unmarked) [Example 182, 2-([1,1′-Biphenyl]-4-yl)-N-(1-amino-4b-hydroxy-7-isopropyl-10-oxo-9b,10-dihydro-4bH-indeno[1,2-b]benzofuran-9b-yl)acetamide] registered a CC50 of 5.85 µg/mL (≈ 11.6 µM). In addition, where the note is “Picorana CC50”, the CC50 amounted to 6.42 µg/mL (≈ 12.7 µM). For `CC(C)c1ccc2c(c1)OC1(O)c3ccccc3C(=O)C21NC(=O)[C@@H](C)NC(=O)OC(C)(C)C` (stereo partly drawn) [Example 184, tert-Butyl(2R)-1-(4b-hydroxy-7-isopropyl-10-oxo-9b,10-dihydro-4bH-benzo[d]indeno[1,2-b]furan-9b-ylamino)-1-oxopropan-2-ylcarbamate], in that order: > 10 µg/mL and 36.4 µg/mL (≈ 78 µM). Turning to `CC(C)c1ccc2c(c1)OC1(O)c3ccccc3C(=O)C21NC(=O)[C@@H](Cc1ccccc1)NC(=O)OC(C)(C)C` (stereo partly drawn) [Example 185, tert-Butyl(2R)-1-(4b-hydroxy-7-isopropyl-10-oxo-9b,10-dihydro-4bH-benzo[d]indeno[1,2-b]furan-9b-ylamino)-1-oxo-3-phenylpropan-2-ylcarbamate], the CC50 was > 10 µg/mL. Also, the CC50 (Picorana CC50) stood at 7.18 µg/mL (≈ 13.2 µM). In the case of `CC(C)c1ccc2c(c1)OC1(O)c3cccc(N)c3C(=O)C21NC(=O)c1c(Cl)cc(Cl)cc1Cl` (centres unmarked) [Example 192, N-(1-Amino-4b-hydroxy-7-isopropyl-10-oxo-9b,10-dihydro-4bH-indeno[1,2-b]benzofuran-9b-yl)-2,4,6-trichlorobenzamide], the CC50 was > 10 µg/mL. In the case of `CC(C)c1ccc2c(c1)OC1(O)c3cccc(N)c3C(=O)C21NC(=O)CCl` (centres unmarked) [Example 194, N-(1-Amino-4b-hydroxy-7-isopropyl-10-oxo-9b,10-dihydro-4bH-benzo[d]indeno[1,2-b]furan-9b-yl)-2-chloroacetamide], the CC50 is > 10 µg/mL. In turn, `CCCCc1cn(C23C(=O)c4c(N)cccc4C2(O)Oc2cc(C(C)C)ccc23)nn1` (centres unmarked) [Example 196, 1-amino-9b-(4-butyl-1H-1,2,3-triazol-1-yl)-4b-hydroxy-7-isopropyl-4bH-indeno[1,2-b]benzofuran-10(9bH)-one] yielded a CC50 of 16.2 µg/mL (≈ 38.7 µM). For the setting “Picorana CC50”, this molecule gave a CC50 of 48.5 µg/mL (≈ 116 µM). In turn, `CC(C)c1ccc2c(c1)OC1(O)c3cccc(N)c3C(=O)C21NC(=O)c1cccc2cccnc12` (centres unmarked) [Example 202, N-(1-Amino-4b-hydroxy-7-isopropyl-10-oxo-9b,10-dihydro-4bH-indeno[1,2-b]benzofuran-9b-yl)quinoline-8-carboxamide] displayed a CC50 of 3.24 µg/mL (≈ 6.96 µM). Under “Picorana CC50”, this molecule displayed a CC50 of 9.6 µg/mL (≈ 20.6 µM). In the case of `CC(C)c1ccc2c(c1)OC1(O)c3ccccc3C(=O)C21NC(=O)c1cc2ccccc2[nH]1` (centres unmarked) [Example 208, N-(4b-hydroxy-7-isopropyl-10-oxo-9b,10-dihydro-4bH-indeno[1,2-b]benzofuran-9b-yl)-1H-indole-2-carboxamide], the CC50 was > 10 µg/mL. With `CC(C)c1ccc2c(c1)OC1(O)c3ccccc3C(=O)C21NC(=O)c1cnn(-c2ccccc2)c1C(F)(F)F` (centres unmarked) [Example 211], the CC50 is > 10 µg/mL.
